Columns and labels:
[1] = solubility of the compound represented by formula (1) in pH regulating solution, HPLC; assay type: physicochemical; conditions: thermodynamic from solid, 50 mM citric acid pH regulator with sucrose and polyethylene glycol 600, 1 hour at 5° C.
Description: 0.525 g of citric acid monohydrate was dissolved in injection-use distilled water, and a sodium hydroxide solution was used to adjust the pH while 5 g of sucrose and 1 g of polyethylene glycol 600 (stabilizer) were dissolved, thereby preparing 50 mL of various 50 mM pH regulators (with a pH of 5.6, 5.8, 6.0, 6.2, 6.4, or 6.6) containing sucrose and the stabilizer. 3 mL of the pH regulating solution thus prepared was put into a 5 mL vial containing approximately 9 mg of the compound represented by formula (1), and this was stored for 1 hour at 5° C. while being stirred. Thereafter, the solution (including a suspension) was filtered (0.22 μm filter), the first 1 mL of the filtrate was discarded, and the solution thus obtained was subjected to high-performance liquid chromatography (HPLC) to measure the concentration of the compound represented by formula (1), which was termed the solubility of the compound represented by formula (1). The pH of the solution was also measured at the same time.

[2] = tested on: VEGF (vascular endothelial growth factor) production; conditions: low-oxygen state in vitro; cited from earlier work
[3] = pKa of the compound represented by formula (1); assay type: physicochemical
solid tumor cell = conditions: in vivo; cited from earlier work
[4] = formulation study of the compound represented by formula (1): stability and crystal dissolution; assay type: physicochemical

solubility at 1 h ([1]; aqueous with cosolvent or surfactant or cyclodextrin, pH 5.79): > 2.44 mg/mL
solubility at 1 h ([1]; aqueous with cosolvent or surfactant or cyclodextrin, pH 5.99): > 2.31 mg/mL
solubility at 1 h ([1]; aqueous with cosolvent or surfactant or cyclodextrin, pH 6.51): > 2.72 mg/mL
solubility at 1 h ([1]; aqueous with cosolvent or surfactant or cyclodextrin, pH 6.81): 2.57 mg/mL
solubility at 1 h ([1]; aqueous with cosolvent or surfactant or cyclodextrin, pH 7.04): 1.8 mg/mL
solubility at 1 h ([1]; pH 6.2, aqueous with cosolvent or surfactant or cyclodextrin, pH 6.20): > 2.27 mg/mL
pKa [3]: ~7.9
stability in the form of a crystalline powder [4]: good stability
stability in solution ([4]; formulation of an injection): not sufficiently stable
crystal dissolution ([4]; packed powder): slow
Structure (SMILES): CCC(O)C(C)C1OC1CC(C)(O)/C=C/C=C(\C)C1OC(=O)CC(O)CCC(C)(O)C(OC(=O)N2CCN(C3CCCCCC3)CC2)/C=C/C1C (stereo not drawn) [compound represented by formula (1), (8E,12E,14E)-7-((4-cycloheptylpiperazin-1-yl)carbonyl)oxy-3,6,16,21-tetrahydroxy-6, 10,12,16,20-pentamethyl-18,19-epoxytricosa-8,12,14-trien-11-olide]
action on VEGF production [2]: suppressing VEGF (vascular endothelial growth factor) production
action on solid tumor cell proliferation (solid tumor cell): suppressing solid tumor cell proliferation
